Consider 14 compounds from US12180207B2 (ARRAY BIOPHARMA INC., priority 2018, dated 2024).

For experiment [1], the target named is FGFR3 (SEQ ID NO: 5, amino acids 449-759) (Homo sapiens (Human), UniProt P22607). In words: LC/MS FGFR3 kobs assay (covalent protein modification). The experiment is classed as binding. As to conditions: 500 nM FGFR3, 3 μM compound. The procedure, abridged:
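Intact-mass LC/MS tracks covalent labeling of the kinase domain over time after acid quench (0.4% formic acid). Unmodified fraction, scaled to DMSO controls, is fitted as exponential decay; kobs is reported, averaged when measured more than once.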

The target of experiment [2] is recombinant human FGFR3 (amino acids R397-T806) (Homo sapiens (Human), UniProt P22607). Description: FGFR3 enzyme activity assay (LanthaScreen TR-FRET). The note with it: 25 μM ATP, 10 min incubation at 22° C., average of multiple determinations if made, read-out: FGFR3 Enz FRET IC50. In kind it is biochemical. The procedure, abridged: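 GST-HIS6-tagged human FGFR3 (R397-T806) was reacted with 100 nM Alexa Fluor 647-Poly-GT substrate and 25 μM ATP plus compound in HEPES/MgCl2/Triton buffer, pH 7.5, 2% DMSO, for 10 min at 22 °C.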
Sequence of recombinant human FGFR3 (amino acids R397-T806) (P22607 397-806): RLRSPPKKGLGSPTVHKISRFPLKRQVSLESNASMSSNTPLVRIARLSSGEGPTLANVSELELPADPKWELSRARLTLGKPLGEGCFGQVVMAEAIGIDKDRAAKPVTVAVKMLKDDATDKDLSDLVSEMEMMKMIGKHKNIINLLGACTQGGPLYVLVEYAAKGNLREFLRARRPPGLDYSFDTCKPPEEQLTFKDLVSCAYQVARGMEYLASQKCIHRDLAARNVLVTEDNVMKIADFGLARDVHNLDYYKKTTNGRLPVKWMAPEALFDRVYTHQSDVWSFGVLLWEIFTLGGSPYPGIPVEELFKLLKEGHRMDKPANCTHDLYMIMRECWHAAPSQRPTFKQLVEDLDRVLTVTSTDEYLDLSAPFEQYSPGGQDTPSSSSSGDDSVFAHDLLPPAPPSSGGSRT

Experiment [3] has as its target recombinant human FGFR1 catalytic domain (amino acids 308-731) (Homo sapiens (Human), UniProt P11362). Description: FGFR1 enzyme activity assay (LanthaScreen TR-FRET). In kind it is biochemical. As to conditions: 20 min incubation at 22° C., average of multiple determinations if made, read-out: FGFR1 Enz FRET IC50. The procedure, abridged: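 His-tagged FGFR1 kinase domain with 100 nM Alexa Fluor 647-poly-GT peptide and ATP in pH 7.5 HEPES/MgCl2 buffer with 2% DMSO, 20 min at 22 °C. Quenched with EDTA plus 2 nM Eu-PY20 antibody and read after 60 min. IC50 comes from a 4-parameter fit of percent of control.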

The target of experiment [4] is phosphorylated FGFR3 (SEQ ID NO: 5, amino acids 449 to 759) (Homo sapiens (Human), UniProt P22607). In words: FGFR enzyme binding assay (HTRF tracer displacement), FGFR3. As to conditions: 5 nM phosphorylated FGFR3, average of multiple determinations if made. An outline of the steps: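 Compounds were tested for displacement of a tracer from human FGFR kinase in a time-resolved FRET binding format. After 60 minutes at 22° C, signal was read at two wavelengths and converted to percent of control, normalised between untreated wells and 1 μM reference inhibitor.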
Sequence of phosphorylated FGFR3 (SEQ ID NO: 5, amino acids 449 to 759) (P22607 449-759): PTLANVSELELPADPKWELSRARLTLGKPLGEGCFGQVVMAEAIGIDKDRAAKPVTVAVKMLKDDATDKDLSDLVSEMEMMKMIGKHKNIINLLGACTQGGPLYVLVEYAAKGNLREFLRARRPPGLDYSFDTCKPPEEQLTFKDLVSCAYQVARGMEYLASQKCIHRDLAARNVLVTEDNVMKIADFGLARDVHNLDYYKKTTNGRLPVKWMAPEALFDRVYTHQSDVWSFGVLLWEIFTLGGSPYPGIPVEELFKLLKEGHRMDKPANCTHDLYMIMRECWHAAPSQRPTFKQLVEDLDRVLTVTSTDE

Experiment [5] deals with HEK-293 cells transfected with dox-inducible human wild type FGFR2 (Homo sapiens (Human), UniProt P21802). Description: FGFR2 pFGFR cell assay (ELISA). In kind it is cell-based. The note with it: HEK-293 dox-inducible FGFR2, 1 hour compound, 30 ng/ml FGF-acidic. The procedure: FGFR2 pFGFR Cell Assay: • HEK-293 cells transfected with dox-inducible human wild type FGFR2 (SEQ ID NO: 3) were plated in a collagen or poly-D-lysine coated 96 well flat bottom plates at 4×10^5 cells/well in complete DMEM medium containing 10% FBS and 1 μg/ml doxycycline and allowed to attach for 24 h at 37° C., 5% CO2. Cells were treated with compound using 1:3 serial dilutions with a maximum final concentration of 5 μM. Compound was incubated on cells for 1 hour at 37° C., 5% CO2. Cells were then stimulated with a final concentration of 30 ng/ml human FGF-acidic (R&D Systems Cat number 232-FA/CF) for 5 minutes at 37° C., 5% CO2. Medium was removed and cells were lysed with lysis buffer containing phosphatase and protease inhibitors. Phospho FGFR2 was measured by ELISA (R&D Systems cat. no. DYC684). The ELISA captures total FGFR2 and detects total phospho tyrosine. Optical density was measured for each well using a Versamax reader at a wavelength of 450 nm. 100 POC was determined using no test compounds and 0 POC was determined using a control compound. The POC values were fit to a 4-parameter logistic curve as a function of the concentration of the compound, and the IC50 value is the point where the curve crosses 50 POC.
Sequence of HEK-293 cells transfected with dox-inducible human wild type FGFR2 (P21802 22-821): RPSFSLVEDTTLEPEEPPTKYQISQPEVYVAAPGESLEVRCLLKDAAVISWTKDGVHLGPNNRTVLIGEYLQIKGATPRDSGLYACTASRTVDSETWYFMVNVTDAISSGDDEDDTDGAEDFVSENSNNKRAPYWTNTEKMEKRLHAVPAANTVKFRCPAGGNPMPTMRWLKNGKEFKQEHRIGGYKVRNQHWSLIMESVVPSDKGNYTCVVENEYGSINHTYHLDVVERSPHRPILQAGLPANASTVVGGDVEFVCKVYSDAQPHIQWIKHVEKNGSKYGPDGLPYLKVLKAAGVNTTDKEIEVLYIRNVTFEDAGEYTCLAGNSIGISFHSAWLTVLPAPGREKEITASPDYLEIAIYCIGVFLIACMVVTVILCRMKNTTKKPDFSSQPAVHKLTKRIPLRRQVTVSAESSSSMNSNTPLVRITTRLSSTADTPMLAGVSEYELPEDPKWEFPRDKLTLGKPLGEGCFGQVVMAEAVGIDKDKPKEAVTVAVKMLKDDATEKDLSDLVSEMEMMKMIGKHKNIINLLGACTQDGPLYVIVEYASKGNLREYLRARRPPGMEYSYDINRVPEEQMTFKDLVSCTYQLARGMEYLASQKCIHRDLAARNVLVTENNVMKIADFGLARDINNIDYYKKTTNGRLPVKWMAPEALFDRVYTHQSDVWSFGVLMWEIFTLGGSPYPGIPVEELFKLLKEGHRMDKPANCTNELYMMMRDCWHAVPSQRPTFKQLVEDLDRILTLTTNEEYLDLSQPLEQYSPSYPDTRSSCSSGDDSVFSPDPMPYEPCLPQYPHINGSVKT

Sequence of FGFR3 (SEQ ID NO: 5, amino acids 449-759) (P22607 449-759): as the sequence (P22607 449-759) above
Sequence of recombinant human FGFR1 catalytic domain (amino acids 308-731) (P11362 other isoform, or with tags, fused parts or gaps): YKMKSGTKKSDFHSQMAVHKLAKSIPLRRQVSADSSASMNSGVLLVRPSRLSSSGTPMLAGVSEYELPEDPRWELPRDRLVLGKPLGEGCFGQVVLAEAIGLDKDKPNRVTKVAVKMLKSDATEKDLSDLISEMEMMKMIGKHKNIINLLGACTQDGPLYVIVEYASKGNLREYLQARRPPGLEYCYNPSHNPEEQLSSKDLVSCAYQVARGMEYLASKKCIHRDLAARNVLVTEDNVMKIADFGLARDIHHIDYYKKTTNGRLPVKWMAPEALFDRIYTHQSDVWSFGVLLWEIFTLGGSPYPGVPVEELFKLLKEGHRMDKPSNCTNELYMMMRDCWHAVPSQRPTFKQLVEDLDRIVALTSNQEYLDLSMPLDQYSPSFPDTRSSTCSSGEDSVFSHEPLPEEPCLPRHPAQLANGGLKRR

Take `COc1cc(-c2cnn(C3CCN(C(=O)C4(OC)CN(C(=O)/C=C/CN(C)C)C4)CC3)c2C)cn2ncc(C#N)c12` [Example 158, (E)-6-(1-(1-(1-(4-(dimethylamino)but-2-enoyl)-3-methoxyazetidine-3-carbonyl)piperidin-4-yl)-5-methyl-1H-pyrazol-4-yl)-4-methoxypyrazolo [1,5-a]pyridine-3-carbonitrile]: the “FGFR3 Enz kobs” value in experiment [1] came to 0.1008 min⁻¹. Besides, the half-inhibitory concentration (IC50) in experiment [2] amounted to 8 nM; in experiment [3], 77 nM; in experiment [4], 2 nM; in experiment [5], 1550 nM.

As to `COC/C=C/C(=O)N1CC(F)(C(=O)N2CCC(n3ncc(-c4cc(OC)c5c(C#N)cnn5c4)c3C)CC2)C1` [Example 154, (E)-6-(1-(1-(3-fluoro-1-(4-methoxybut-2-enoyl)azetidine-3-carbonyl)piperidin-4-yl)-5-methyl-1H-pyrazol-4-yl)-4-methoxypyrazolo [1,5-a]pyridine-3-carbonitrile], the “FGFR3 Enz kobs” value in experiment [1] stood at 0.00747 min⁻¹. The 50% inhibitory concentration (IC50) in experiment [2] was 19 nM; in experiment [3], 335 nM; in experiment [4], 19 nM; in experiment [5] it was 327 nM.

Regarding `C=CC(=O)N1CC(C(=O)N2CCC3(CC2)CN(c2ccc(-c4cc(OC)c5c(C#N)cnn5c4)cn2)C3)C1` [Example 102, 6-(6-(7-(1-acryloylazetidine-3-carbonyl)-2,7-diazaspiro[3.5]nonan-2-yl)pyridin-3-yl)-4-methoxypyrazolo[1,5-a]pyridine-3-carbonitrile], the “FGFR3 Enz kobs” value in experiment [1] was found to be 0.02912 min⁻¹. Also, the IC50 is 22 nM in experiment [2], 38 nM in experiment [3], 6 nM in experiment [4] and 129 nM in experiment [5].

With `C=CS(=O)(=O)N1CCC(C(=O)N2CCC(n3cc(-c4cc(OC)c5c(C#N)cnn5c4)cn3)CC2)CC1` [Example 186, 4-methoxy-6-(1-(1-(1-(vinylsulfonyl)piperi-dine-4-carbonyl)piperidin-4-yl)-1H-pyrazol-4-yl)pyrazolo[1,5-a]pyridine-3-carbonitrile], in experiment [1], the “FGFR3 Enz kobs” value is 0.08793 min⁻¹. In addition, the IC50 in experiment [2] is 5 nM; in experiment [3], 5 nM; in experiment [4] it was 2 nM; in experiment [5], 42 nM.

For `C=CC(=O)N1CC(C(=O)N2CCN(c3ccc(-c4cc(OC)c5c(C#N)cnn5c4)cn3)CC2)C1` [Example 111, 6-(6-(4-(1-acryloylazetidine-3-carbonyl)piperazin-1-yl)pyridin-3-yl)-4-methoxypyrazolo[1,5-a]pyridine-3-carbonitrile], the “FGFR3 Enz kobs” value in experiment [1] was determined as 0.04009 min⁻¹. In addition, the concentration for half-maximal inhibition (IC50) in experiment [2] is 3 nM; in experiment [3] it was 12 nM; in experiment [4] it was 11 nM; in experiment [5], 348 nM.

As to `COc1cc(-c2cnn(C3CCN(C(=O)C4(F)CN(C(=O)/C=C/CN(C)C)C4)CC3)c2C)cn2ncc(Cl)c12` [Example 170, (E)-1-(3-(4-(4-(3-chloro-4-methoxypyrazolo [1,5-a]pyridin-6-yl)-5-methyl-1H-pyrazol-1-yl)piperidine-1-carbonyl)-3-fluoroazetidin-1-yl)-4-(dimethylamino)but-2-en-1-one], in experiment [1], the “FGFR3 Enz kobs” value was 0.1388 min⁻¹. Besides, the IC50 in experiment [2] was 17 nM; in experiment [3] it was 903 nM; in experiment [4], 5 nM; in experiment [5], 171 nM.

Take `COc1cc(-c2nnn(C3CCN(C(=O)C4(F)CN(C(=O)/C=C/CN(C)C)C4)CC3)c2C)cn2ncc(C#N)c12` [Example 164, (E)-6-(1-(1-(1-(4-(dimethylamino)but-2-enoyl)-3-fluoroazetidine-3-carbonyl)piperidin-4-yl)-5-methyl-1H-1,2,3-triazol-4-yl)-4-methoxypyrazolo [1,5-a]pyridine-3-carbonitrile]: the “FGFR3 Enz kobs” value in experiment [1] is 0.1705 min⁻¹. Further, the concentration for half-maximal inhibition (IC50) in experiment [2] was found to be 8 nM; in experiment [3], 102 nM; in experiment [4], 3 nM; in experiment [5], 1180 nM.

On to `C=CC(=O)N1CC(CN2CCC(n3ncc(-c4cc(OC)c5c(Cl)cnn5c4)c3C)CC2)(OC)C1` [Example 119, 1-(3-((4-(4-(3-chloro-4-methoxypyrazolo[1,5-a]pyridin-6-yl)-5-methyl-1H-pyrazol-1-yl)piperidin-1-yl)methyl)-3-methoxyazetidin-1-yl)prop-2-en-1-one], for which the “FGFR3 Enz kobs” value in experiment [1] is 0.04536 min⁻¹. The IC50 in experiment [2] worked out at 39 nM; in experiment [3], 334 nM; in experiment [4], 8 nM; in experiment [5], 322 nM.

`C=CC(=O)N1CC(CN2C[C@H]3C[C@@H]2CN3c2ccc(-c3cc(OC)c4c(C#N)cnn4c3)cn2)C1` [Example 108, 6-(6-((1R,4R)-5-((1-acryloylazetidin-3-yl)methyl)-2,5-diazabicyclo[2.2.1]heptan-2-yl)pyridin-3-yl)-4-methoxypyrazolo[1,5-a]pyridine-3-carbonitrile]: the “FGFR3 Enz kobs” value in experiment [1] was found to be 0.01344 min⁻¹. In addition, the half-maximal inhibitory concentration (IC50) in experiment [2] worked out at 10 nM; in experiment [3], 20 nM; in experiment [4], 11 nM; in experiment [5], 236 nM.

As to `C=CC(=O)N1CC(C(=O)N2CCC(n3cnc(-c4cc(OC)c5c(C#N)cnn5c4)c3)CC2)C1` [Example 98, 6-(1-(1-(1-acryloylazetidine-3-carbonyl)piperidin-4-yl)-1H-imidazol-4-yl)-4-methoxypyrazolo[1,5-a]pyridine-3-carbonitrile], the “FGFR3 Enz kobs” value in experiment [1] came to 0.01995 min⁻¹. Besides, the results for the half-inhibitory concentration (IC50) in experiment [2], in experiment [3] and in experiment [4] were 9 nM, 22 nM and 19 nM, respectively.

With `C=CC(=O)N1CC(F)(C(=O)N2CCC(n3cc(-c4cc(OC)c5c(Cl)cnn5c4)cn3)CC2)C1` [Example 121, 1-(3-(4-(4-(3-chloro-4-methoxypyrazolo[1,5-a]pyridin-6-yl)-1H-pyrazol-1-yl)piperidine-1-carbonyl)-3-fluoroazetidin-1-yl)prop-2-en-1-one], the “FGFR3 Enz kobs” value in experiment [1] turned out to be 0.06393 min⁻¹. For the same compound, the IC50 in experiment [2] worked out at 9 nM; in experiment [3] it was 28 nM; in experiment [4], 3 nM.

Turning to `COc1cc(-c2ccc(N3CCN(C(=O)C4(F)CN(C(=O)/C=C/CN(C)C)C4)CC3)nc2C)cn2ncc(C#N)c12` [Example 168, (E)-6-(6-(4-(1-(4-(dimethylamino)but-2-enoyl)-3-fluoroazetidine-3-carbonyl)piperazin-1-yl)-2-methylpyridin-3-yl)-4-methoxypyrazolo [1,5-a]pyridine-3-carbonitrile], the “FGFR3 Enz kobs” value in experiment [1] came out at 0.06456 min⁻¹. Further, the IC50 in experiment [2] stood at 72 nM; in experiment [3] it was 148 nM; in experiment [4], 34 nM.

Regarding `C=CC(=O)N1CC(C(=O)N2CCC(n3cc(-c4cc(C(C)C)c5c(C#N)cnn5c4)cn3)CC2)C1` [Example 129, 6-(1-(1-(1-acryloylazetidine-3-carbonyl)piperidin-4-yl)-1H-pyrazol-4-yl)-4-isopropylpyrazolo[1,5-a]pyridine-3-carbonitrile], the “FGFR3 Enz kobs” value in experiment [1] was 0.01646 min⁻¹. Besides, the half-maximal inhibitory concentration (IC50) in experiment [2] came out at 6 nM; in experiment [3], 14 nM; in experiment [4], 34 nM.

As to `C=CC(=O)N1CCC(F)(C(=O)N2CCC(n3cc(-c4cc(OC)c5c(C#N)cnn5c4)cn3)CC2)CC1` [Example 13, 6-(1-(1-(1-acryloyl-4-fluoropiperidine-4-carbonyl)piperidin-4-yl)-1H-pyrazol-4-yl)-4-methoxypyrazolo[1,5-a]pyridine-3-carbonitrile], the “FGFR3 Enz kobs” value in experiment [1] turned out to be 0.00418 min⁻¹. Further, the figures for the 50% inhibitory concentration (IC50) in experiment [2], in experiment [3] and in experiment [4] were 3 nM, 10 nM and 39 nM, respectively.
